Data published in patent US8175371B2, “Method for imaging and differential analysis of cells” (Amnis Corporation, priority 2004, dated 2012).

Tested on: Jurkat cells
Assay: Annexin V / 7-AAD staining of treated Jurkat cells, evaluated by flow cytometry and fluorescence microscopy
Assay type: cell-based, Human
Details: Jurkat T cells, Alexa Fluor 488 annexin V and 7-AAD
Protocol: Human acute T leukemic Jurkat cell line was obtained from ATCC (Rockville, Md.; catalog number CRL-1990) and maintained in RPMI 1640 (Gibco, Grand Island, N.Y.) containing 5% fetal bovine serum, 1 mM sodium pyruvate (Mediatech, Herndon, Va.), 100 µM nonessential amino acids, 100 U/ml penicillin, 100 µg/ml streptomycin, and 2 mM L-glutamine (BioWhittaker, Walkersville, Md.) in 5% CO2 atmosphere at 37 degrees C. The density of exponentially growing cells was less than 3×10^5 cells per ml at the time of all treatments. To induce apoptosis, cells were treated for 18 hours with 1 µM camptothecin (CPT, Sigma), a DNA topoisomerase I inhibitor. […]
Control (untreated) cell, CPT treated (apoptotic) cells, and peroxide treated (necrotic) cells were independently counted and washed once in phosphate buffered saline (PBS, Fair Lawn, N.J.). […] Each cell group was washed in annexin V Binding Buffer, fixed in 2% paraformaldehyde (Sigma), and analyzed as either single populations or as a mixture by flow cytometry and immunofluorescence microscopy.
For flow cytometry, cell fluorescence data excited by a 488 nm laser were acquired using the FACSort™ cytometer (BD Immunocytometry Systems, San Jose, Calif.) and analyzed using CellQuest™ (BD Immunocytometry Systems). […]

SMILES | annexin V / 7-AAD staining of treated cells (apoptosis induction) (1 µM CPT for 18 hours, FIG. 2B) | annexin V / 7-AAD staining of treated cells (necrosis induction) (0.3% hydrogen peroxide for 1 hour, FIG. 2C)
CC[C@@]1(O)C(=O)OCc2c1cc1n(c2=O)Cc2cc3ccccc3nc2-1 [CPT, camptothecin] | two populations of cells, those that were annexin V^+ (single positive, SP, or early apoptotic cells), and those that were annexin V^+, 7-AAD^+ (double positive, DP, or late apoptotic cells) | –
OO [peroxide, hydrogen peroxide] | – | stained positively with both annexin V and 7-AAD
